According to patent publication US9474780B2, “GIP and GLP-1 co-agonist compounds” (Eli Lilly and Company, priority 2015, dated 2016):
Marks after values point to notes of the source that are not given here.

Experiments:
[1] = Plasma corticosterone in Sprague Dawley rats; type: in vivo, rat
Procedure: Plasma corticosterone levels are evaluated using Sprague Dawley Rats (Harlan, Indianapolis), weighing approximately 220 g and acclimated for at least 72 hours before handling. The rats are then dosed with vehicle (20 mM citrate buffer, pH 7), semaglutide (10 nmol/kg), or compounds of the present invention at 3, 10 or 30 nmol/kg s.c. with 8 rats per dose group. The rats are decapitated 16 hours later. Blood is collected into EDTA tubes on ice, then centrifuged 5 minutes at 8000 RPM in a Eppendorf 5402 tabletop centrifuge. Plasma is stored at −80° C. until analysis.
For corticosterone analysis, corticosterone standards (Sigma, 27840) are prepared by serial dilutions in HPLC-grade methanol, H2O and the addition of 5% charcoal stripped rat serum (Bioreclamation, RATSRM-STRPD-HEV). Rat plasma samples are diluted with PBS, precipitated with cold methanol, incubated for 20 minutes at −20° C., and then centrifuged at 14,000 RPM with an Eppendorf 5417R at 4° C. Supernatants are extracted, evaporated under a stream of N2 gas, and reconstituted in MeOH/H2O (1:1) solution.

[2] = Gastric emptying in DIO mice; type: in vivo, mouse; details: 30 nmol/kg SC, semi-liquid diet, 2 hours
Procedure: The effects on gastric emptying in DIO mice for compounds of the present invention are evaluated in 23 week old diet-induced obese (DIO) male mice (Harlan). The mice are fasted for 16-17 hours. During the start of fasting period the mice are dosed subcutaneously with vehicle control (20 mM citrate buffer at pH 7.0); escalating doses of compounds of the present invention (3, 10, 30 and 100 nmol/kg), or a long-acting GLP1 analogue, semaglutide, (30 nmol/kg). The next day, mice are administered 0.5 ml (0.5 gram) of freshly prepared semi-liquid diet (2 minutes apart) by oral gavage. Water is removed at this time to prevent dilution of administered diet. Two hours after diet administration, mice are euthanized two minutes apart by CO2 gas. The stomach is removed while clamped at both cardiac and pyloric openings, then clamps removed and the full stomach weighed in a weigh boat. The stomach is then incised and contents removed. The stomach is washed and dried and re-weighed to assess food contents in stomach. The % gastric emptying equals 100×(1−(food remaining in stomach/food orally administered)).

[3] = Rat in vivo insulin secretion following intravenous glucose (IVGTT); details: s.c. 16 hour prior to glucose
In short: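 Male Wistar rats dosed s.c. with vehicle or 0.1–10 nmol/kg 16 h before glucose, then fasted and anesthetized with pentobarbital i.p. (65 mg/kg). Glucose ([…]) given after a time-zero bleed; plasma sampled at 2, 4, 6, 10, 20, 30 min. Glucose measured by analyzer, insulin by MSD immunoassay.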

[4] = Dose potency projection: rat ivGTT exposure response Emax model; type: in vivo; details: single SC dose, ivGTT 16 hours post-dosage
Procedure: The intravenous glucose tolerance test (ivGTT) in the rat is used to estimate relative potency of compounds of the present invention in comparison to semaglutide. […] Exposure is measured at the time of the ivGTT, and for exposure response modeling, the insulin AUC in response to the ivGTT is used as the primary endpoint. […] Both data sets are fit simultaneously and E0 and Emax values are constrained to be the same for both compounds. Only ED50 values are fit separately for the compounds.

[5] = Energy metabolism in DIO mice (indirect calorimetry); type: in vivo, mouse; details: SC every three days for 22 days, from week 2, semaglutide 30 nmol/kg
Procedure: The effects on energy metabolism in DIO mice for compounds of the present invention are evaluated in 26 week old C57/B16 DIO male mice, weighing 43-50 g. Mice are individually housed in a temperature-controlled (24° C.) facility with a 12 hour light/dark cycle (lights on 22:00), and with free access to food TD95217 (Teklad) and water. After 2 weeks acclimation to the facility, mice are randomized to treatment groups (n=6/group) based on body weight so each group has similar starting mean body weight. Animals are placed in a PhenoMaster/LabMaster calorimeter (TSE Systems, Chesterfield, Mo.) for 3 days of acclimation. Vehicle control (20 mM citrate buffer at pH 7.0, 10 ml/kg), compounds of the present invention, or a long-acting GLP1 analogue, semaglutide, (30 nmol/kg) are subcutaneously administered to ad libitum fed DIO mice 30-90 minutes prior to the onset of the dark cycle every three days for 22 days. Heat and respiratory quotient (RER) are measured by indirect calorimetry as described using an open-circuit calorimetry system. RER is the ratio of the volume of CO2 produced (Vco2) to the volume of O2 consumed (Vo2). Heat is calculated with full body weight considered: VO2=FlowML*(V1+V2)/N2Ref*Animal weight*100) VCO2=FlowML*dCO2/Animal weight*100) Heat=(CVO2*VO2+CVCO2*VCO2)/1000; where CVO2=3.941; CVCO2=1.106

[6] = Weight loss, body composition and hepatic steatosis in DIO mice; type: in vivo, mouse; details: for Blood Glucose: Day 15
In short: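 C57/BL6 DIO mice, individually housed at 24 °C, 12 h light/dark, food and water ad libitum; daily body weight and food intake, weight change versus pre-dose value of the same animal. Day 15: tail-vein glucose, then liver triglycerides and plasma cholesterol; ANOVA with Dunnett's test, ED50 for weight loss by non-linear fit.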

## semaglutide [reference compound]
[1]; 10 nmol/kg s.c., 16 hours
  Corticosterone, Mean: 274.57 ng/mL
[1]; Example 1 at 3, 10, 30 nmol/kg, semaglutide 10 nmol/kg
  increase in plasma corticosterone levels over control: approximately 4 ×
[2]
  Percent Gastric Emptying: 30.56 +/− 7.53** %
[3]
  % max increase of insulin AUC: 231 +/− 13%
  ED50 for insulin, rat IVGTT: 0.70 nmol/kg
[4]
  ED50 (Emax model, insulin AUC in ivGTT): 0.6 ± 0.2 nmol/kg
[5]
  increase in metabolic rate compared to the control group: no effect on metabolic rate
[6]; Table 8, 10 nmol/kg
  % Change from starting body weight: −12.36 ± 1.00 %
  % Change from starting fat mass: −18.21 ± 2.24 %
[6]; Table 8, 30 nmol/kg
  % Change from starting body weight: −14.20 ± 1.01 %
  % Change from starting fat mass: −21.90 ± 2.07 %
[6]; Table 8, 100 nmol/kg
  % Change from starting body weight: −19.30 ± 1.38 %
  % Change from starting fat mass: −33.51 ± 3.30 %
[6]; Table 9, 30 nmol/kg
  % Change from starting body weight: −17.03 ± 0.98 %
  % Change from starting fat mass: −35.94 ± 4.09 %
[6]; Table 11, 10 nmol/kg
  Plasma Cholesterol: 226.8 ± 13.86 mg/dL
  Plasma Triglycerides: 27.36 ± 3.56 mg/dL
  Blood Glucose: 147.6 ± 6.13 mg/dL
[6]; Table 11, 30 nmol/kg
  Plasma Cholesterol: 229.8 ± 10.96 mg/dL
  Plasma Triglycerides: 27.9 ± 6.01 mg/dL
  Blood Glucose: 146.8 ± 8.43 mg/dL
[6]; Table 11, 100 nmol/kg
  Plasma Cholesterol: 218.4 ± 18.70 mg/dL
  Plasma Triglycerides: 36.46 ± 5.34 mg/dL
  Blood Glucose: 134.3 ± 9.22 mg/dL
[6]; Table 12, 30 nmol/kg
  Liver Triglycerides: 67.63 ± 23.40 mg/g tissue
  Plasma Cholesterol: 161.0 ± 13.92 mg/dL
  Blood Glucose: 136.3 ± 3.81 mg/dL
